Results published in patent EP0323590A2, “Carbazoyl derivatives” (ONO PHARMACEUTICAL CO., LTD., priority 1987, dated 1989).
Structures can show the parent of a compound that is named as a salt.

System: Maillard reaction
Assay: Inhibitory effect on Maillard reaction in vitro (BSA + glucose incubation, fluorescence)
Assay type: biochemical
Conditions: 6mM test compound, 100 mg/ml bovine serum albumin (BSA), 200 mM glucose, 0.5 M phosphatic buffer pH 7.38, a week at 37°C; fluorescence excitation 360nm, emission 450 nm
Experimental: In order to evaluate the inhibitory effect on Maillard reaction in vitro, of the compounds in the present invention, the measurement was carried out under conditions described below.
After incubation, the incubated medium was diluted 100 times with the same phosphatic buffer solution, and the fluorescence spectrum was measured at the excitation maximum of 360nm and the emission maximum of 450 nm.
Inhibition percentage of the test compounds was calculated by the following equation: [formula] ΔI₁ : fluorescence of test compounds ΔI₂ : fluorescence of (test compounds + glucose), ΔI₃ : fluorescence of (test compounds + BSA), ΔI₄ : fluorescence of (test compounds + BSA + glucose), ΔI : fluorescence of (BSA + glucose)

Structure (SMILES) | Inhibitory effect (%) (6mM)
NNC(=O)NC1CCCCC1 [1(a), 4-cyclohexyl semicarbozide] | 100
Cl.NNC(=O)Nc1ccc(Cl)cc1 [1(e), 4-(4-chlorophenyl) semicarbazide hydrochloride] | 65
Cl.NNC(=O)NCc1ccccc1 [1(f), 4-benzylsemicarbazide hydrochloride] | 90
Cl.Cl.NNC(=O)NCCCCCCNC(=O)NN [1(i), 4-[6-(3-aminoureido)hexyl]semicarbazide dihydrochloride] | 100
NNC(=O)Nc1cccc2ccccc12 [1(j), 4-(1-naphthyl) semicorbazide hydrochloride] | 100
CN(N)C(=O)Nc1ccccc1.Cl [1(q), 2-methyl-4-phenylsemicarbazide hydrochloride] | 74
NNC(=O)CCc1ccccc1 [2(f), 3-phenylpropionohydrazide] | 100
NNC(=O)C1CCCC1 [2(i), cyclopentancarbonylhydrozine] | 37
NNC(=O)c1ccccc1N [Example 2(a), 2-aminobenzohydrazide] | 100
NC(N)=O [Urea, reference compound] | 28
CC(=O)NN [acetohydrazide] | 35
